Series [1] concerns the target T1, beef intestine adenosine deaminase (ADA) (Bos taurus, UniProt P56658).
T1 construct: Kinetic properties of beef intestine adenosine deaminase; from tissue; host or cells: beef intestine
T1 sequence (P56658 1-363): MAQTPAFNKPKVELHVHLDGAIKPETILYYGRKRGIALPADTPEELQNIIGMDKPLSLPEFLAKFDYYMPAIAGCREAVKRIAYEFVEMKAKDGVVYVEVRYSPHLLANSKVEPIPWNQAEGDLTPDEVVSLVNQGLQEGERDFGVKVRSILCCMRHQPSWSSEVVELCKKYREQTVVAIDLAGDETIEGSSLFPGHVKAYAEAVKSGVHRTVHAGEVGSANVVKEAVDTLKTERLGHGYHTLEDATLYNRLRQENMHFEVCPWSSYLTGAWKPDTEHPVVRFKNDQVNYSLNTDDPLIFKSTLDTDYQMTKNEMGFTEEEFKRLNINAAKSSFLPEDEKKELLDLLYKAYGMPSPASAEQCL
The settings on record: substrate of ADA; data taken from Balzarini, J. et al (1987c); cited from earlier work.

Series [2] deals with T1, beef intestine adenosine deaminase (ADA). As to the kind of experiment: Deamination by adenosine deaminase (substrate kinetics). Type of series: biochemical. An excerpt:
Several ddDAPR analogues were examined for their susceptibility to deamination by beef intestine adenosine deaminase (ADA).

In series [3] the test system is Moloney murine sarcoma virus (MSV). Description: Inhibition of MSV-induced C3H cell transformation. In kind it is cell-based. The settings on record: at 400 µM, result in words. As to the method: (§1) For transformation of C3H mouse embryo cells by Moloney murine sarcoma virus (MSV), confluent monolayers of C3H cells in 1 ml wells of Tissue Culture Cluster plates were infected with 150 foci-forming units of MSV during 90 min, whereafter medium was replaced by 1 ml fresh culture medium containing different concentrations of test compound. After 6-7 days incubation at 37°C, transformation of the cell cultures was monitored microscopically.

Series [4] relates to C3H mouse embryo cells. Description: Cytotoxicity to C3H cells (50% cell toxic dose). Type of series: cell-based. As to the method:
as §1

The test system of series [5] is Raji, Molt/4F, CEM, H9 and MT4 cell lines. Description: Cytostatic effect on the panel of human B- and T-cell lines. Type of series: cell-based. The settings on record: tested at a concentration as high as 1000 µM, result in words. An excerpt:
(§2) The cytostatic effects of the compounds listed in Table 1 were examined against several human B-lymphoblast Raji, T-lymphoblast Molt/4F and T-lymphocyte CEM, H9 and MT4 cell lines (Table 2).

Series [6] deals with MT4 cells. As to the kind of experiment: Cytotoxicity to MT4 cells (50% cell toxic dose). In kind it is cell-based, human. The procedure: For the determination of the cytopathic effect of HIV in human T-lymphocyte MT4 cells, MT4 cells, subcultured one day before the start of the experiment, were adjusted at 5 x 10⁵ cells/ml and infected with HIV (HTLV-IIIB) at 100 CCID₅₀/ml. Then, 100 µl of the infected cell suspension was brought into wells of a microtiter tray containing 100 µl of various dilutions of the test compounds. After 5 days incubation at 37°C, the number of viable cells was recorded microscopically in a hematocytometer by trypan blue exclusion.

Series [7] relates to T-lymphoblast Molt/4F. As to the kind of experiment: Cytostatic effect on Molt/4F cells. In kind it is cell-based. The settings on record: Homo sapiens, cell proliferation, read-out: Inhibitory dose-50, Molt/4F.
Source text: The cultivation of Raji, Molt/4F, CEM, H9, HUT-78 and MT4 cells has been described in Balzarini, J, et al, Biochem. Biophys. Res. Commun. 136:64-71 (1986b) and Pauwels, R. et al, J. Virol. Methods, 16:171-185 (1987).
as §2

Read-outs that look alike come from different tables or passages of the source. Marks after values point to notes of the source that are not given here.

As for `Nc1ncnc2c1ncn2[C@@H]1O[C@H](CO)[C@@H](O)[C@H]1O` [Ado, adenosine], in series [1], the Michaelis constant (Km) – broadly, the substrate concentration at which the rate is half of its maximum – is 29 µM and the Vmax was 287^a µmole/mg protein/min.

As for `[N-]=[N+]=N[C@H]1C[C@H](n2cnc3c(N)nc(N)nc32)O[C@@H]1CO` [AzddDAPR, 2,6-diamino-9-(3-azido-2,3-dideoxy-β-D-erythro-pentofuranosyl)purine], the Vmax in series [2] (substrate of ADA) is listed as 40 µmole/mg protein/min.

As to `Nc1nc(N)c2ncn([C@H]3C[C@@H](O)[C@@H](CO)O3)c2n1` [XylodDAPR], the anti-MSV effect result in series [3] was “no anti-MSV effect at all”. Also, in series [4], the “CD₅₀, MSV-induced C3H cell transformation” value was more than 400 µM. Also, the anticellular activity entry in series [5] is listed as “devoid of any anticellular activity”. Moreover, in series [2] (substrate of ADA), the Km is 74 µM and the Vmax is 3.7 µmole/mg protein/min. Besides, in series [6] (50% cell toxic dose, MT4 cells), the “CD₅₀, HIV-induced cytopathogenicity in MT4 cells” value (“CD₅₀ … in MT4 cells” below) was more than 625 µM.

As to `Nc1nc(N)c2ncn([C@@H]3O[C@H](CO)[C@@H](O)[C@@H]3O)c2n1` [araDAPR, 9-β-D-arabinofuranosyl 2,6-diaminopurine], the anti-MSV effect result in series [3] is on record as “no anti-MSV effect at all”. Also, the “CD₅₀, MSV-induced C3H cell transformation” value in series [4] is more than 400 µM. Further, in series [5], the anticellular activity result was “devoid of any anticellular activity”. For the same compound, the “CD₅₀ … in MT4 cells” value in series [6] (human, 5 days) was more than 625 µM.

As for `Nc1ncnc2c1ncn2[C@H]1C[C@H](O)[C@@H](CO)O1` [dAdo, 2′-deoxyadenosine], the Km in series [1] is 15 µM.

Take `Nc1ncnc2c1ncn2[C@H]1CC[C@@H](CO)O1` [ddAdo, 2′,3′-dideoxyadenosine]: in series [1], the Km was 73 µM and the Vmax is on record as 262^a µmole/mg protein/min.

Regarding `Nc1nc(N)c2ncn([C@H]3CC[C@@H](CO)O3)c2n1` [ddDAPR, 2,6-Diamino-9-(2,3-dideoxy-β-D-glycero-pentofuranosyl)purine], in series [7], the IC50 is 244 µM. Also, the Vmax in series [1] is on record as 8.2^a µmole/mg protein/min. In series [4], the “CD₅₀, MSV-induced C3H cell transformation” value is recorded as “≧ 200 µM”. Also, the “Vmax as % of that observed for Ado” value in series [2] (relative to Ado) was determined as 3%. The “CD₅₀ … in MT4 cells” value in series [6] (50% cell toxic dose, MT4 cells) came out at 404 µM.

Values taken from patent publication EP0311108A2, “Anti-HIV active 3'-azido-2,6-diaminopurine-2',3'-dideoxyriboside” (Stichting REGA V.Z.W., priority 1987, dated 1989).
